The text below walks through data of patent US20240285625A1, “ERK1/2 AND KRAS G12C INHIBITORS COMBINATION THERAPY” (Erasca, Inc., priority 2021, published 2024).

A short description of the data set: Body weight loss in the CO-04-0310 PDX study. Format: in vivo, Balb/c nude mice. The conditions noted are these: CO-04-0310 study; Compound 1 30 mg/kg/dose BID monotherapy; DietGel starting on treatment day 14. On the procedure: Treatment started on the day after randomization. The treatment start day was denoted as treatment day 1. Mice were dosed by oral administration of vehicle control solution or monotherapy treatments of Compound 1 at 30 mg/kg/dose BID or sotorasib at 100 mg/kg QD. An additional group received combination treatment of Compound 1 at 30 mg/kg/dose BID or sotorasib at 100 mg/kg QD. BID was dosed at an 8-hour interval. In the combination group, sotorasib was dosed first and Compound 1 was dosed one hour later. In addition to regular food and water supply. DietGel (Ready Jelly R. 76A. Ready Biotechnology (ShenZhen) Co., Ltd.) was added in cages where at least two mice in a treatment group started showing >10% BWL at any measurement day. DietGel was supplied through the remaining study period after the addition of DietGel. Per this practice, mice in the Compound 1 at 30 mg/kg/dose BID monotherapy treatment group were supplied with DictGel food starting on treatment day 14. The study was terminated on treatment day 28 as defined in the study protocol.

For the compound `Cc1cnc(NC2CCOCC2)nc1-n1cnc(C(=O)N[C@H](CN)c2cc(F)cc(Cl)c2)c1` [Compound 1, (S)—N-(2-amino-1-(3-chloro-5-fluorophenyl)ethyl)-1-(5-methyl-2-((tetrahydro-2H-pyran-4-yl)amino)pyrimidin-4-yl)-1H-imidazole-4-carboxamide], the “BWL (at least two mice in treatment group; DietGel supplied)” value is more than 10%.
